Source: US10316049B2, “Tank-binding kinase inhibitor compounds” (Gilead Sciences, Inc., priority 2015, dated 2019)

Key:
TBK1 = molecular target: T1, TBK1 (Homo sapiens, UniProt Q9UHD2); test: TR-FRET enzymatic activity assay, TBK1; assay type: biochemical; note: full length recombinant TBK1 at 2.5 nM
T1 construct: TBK1 and IKKε were expressed and purified as full length recombinant proteins; made in house
T1 sequence (Q9UHD2 1-729): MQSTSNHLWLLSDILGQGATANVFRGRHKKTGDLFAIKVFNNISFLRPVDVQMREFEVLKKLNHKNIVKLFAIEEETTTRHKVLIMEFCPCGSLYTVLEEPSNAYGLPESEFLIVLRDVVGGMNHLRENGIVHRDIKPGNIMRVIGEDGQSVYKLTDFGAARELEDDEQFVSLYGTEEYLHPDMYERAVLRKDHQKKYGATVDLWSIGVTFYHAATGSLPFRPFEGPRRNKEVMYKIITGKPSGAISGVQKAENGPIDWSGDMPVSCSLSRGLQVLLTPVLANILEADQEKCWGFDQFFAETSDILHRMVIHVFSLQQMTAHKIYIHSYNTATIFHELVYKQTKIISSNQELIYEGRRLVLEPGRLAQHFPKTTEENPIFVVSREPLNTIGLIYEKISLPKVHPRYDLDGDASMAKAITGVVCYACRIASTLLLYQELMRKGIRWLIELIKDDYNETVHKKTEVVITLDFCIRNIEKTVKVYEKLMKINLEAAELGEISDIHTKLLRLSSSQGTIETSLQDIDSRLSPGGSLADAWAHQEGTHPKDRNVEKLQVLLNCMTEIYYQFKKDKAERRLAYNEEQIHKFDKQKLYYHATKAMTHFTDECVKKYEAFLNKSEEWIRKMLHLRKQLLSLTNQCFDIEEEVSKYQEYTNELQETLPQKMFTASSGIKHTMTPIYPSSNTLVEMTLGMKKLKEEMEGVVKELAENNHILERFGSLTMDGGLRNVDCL
Method: (§1) Biological Assay for TBK1 and IKKε:
(§2) Enzymatic activity of IKKε and TBK1 was measured using a homogeneous time resolved fluorescence resonance energy transfer (TR-FRET) assay that monitors enzyme dependent phosphorylation of a biotinylated serine/threonine peptide substrate. An increase in the amount of phosphorylated peptide results in an increase in TR-FRET signal. TBK1 and IKKε were expressed and purified as full length recombinant proteins. Detection reagents for the assay were purchased from Cisbio. […] After an assay reaction time of 240 minutes at 25° C., reactions were terminated with EDTA.
(§3) Amount of phosphorylated peptide was determined by the addition of 125 nM streptavidin XL665 and europium cryptate labeled anti-phospho monoclonal antibody and the resulting TR-FRET signal was recorded on an Envision plate reader (Ex: 340 nm; Em: 615/665 nm; 100 μs delay and 200 μs read window). Data was normalized based on a positive (1 μM Staurosporine) and negative (DMSO) controls and IC50 values calculated from the fit of the dose-response curves to a four-parameter equation. All IC50 values represent geometric mean values of a minimum of four determinations. These assays generally produced results within 3-fold of the reported mean.

IKKε = molecular target: T2, IKKε (Homo sapiens, UniProt Q14164); test: TR-FRET enzymatic activity assay, IKKε; assay type: biochemical; conditions: read-out: IKKϵ IC50; note: full length recombinant IKKε at 0.3 nM
T2 construct: TBK1 and IKKε were expressed and purified as full length recombinant proteins; made in house
T2 sequence (Q14164 1-716): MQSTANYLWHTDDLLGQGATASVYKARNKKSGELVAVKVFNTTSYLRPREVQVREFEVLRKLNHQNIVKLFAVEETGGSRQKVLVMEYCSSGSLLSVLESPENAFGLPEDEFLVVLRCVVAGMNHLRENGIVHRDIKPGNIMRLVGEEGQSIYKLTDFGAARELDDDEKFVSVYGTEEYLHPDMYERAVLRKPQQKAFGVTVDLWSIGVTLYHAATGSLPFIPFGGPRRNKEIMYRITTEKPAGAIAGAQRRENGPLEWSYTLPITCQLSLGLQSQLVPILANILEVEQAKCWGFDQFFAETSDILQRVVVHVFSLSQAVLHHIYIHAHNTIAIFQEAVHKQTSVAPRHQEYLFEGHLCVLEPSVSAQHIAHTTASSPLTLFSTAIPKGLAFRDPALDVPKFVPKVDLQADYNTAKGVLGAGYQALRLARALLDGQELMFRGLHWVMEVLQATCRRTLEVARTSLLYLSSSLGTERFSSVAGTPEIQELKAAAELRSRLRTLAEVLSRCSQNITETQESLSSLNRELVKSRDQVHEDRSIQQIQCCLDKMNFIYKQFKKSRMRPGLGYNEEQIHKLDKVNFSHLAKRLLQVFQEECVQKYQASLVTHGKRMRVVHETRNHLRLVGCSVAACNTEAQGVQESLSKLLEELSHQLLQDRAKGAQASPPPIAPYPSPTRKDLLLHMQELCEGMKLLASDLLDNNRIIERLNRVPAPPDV
Method: as §1
as §2, with “An increase in the amount of phosphorylated peptide results in an increase in TR-FRET signal.” left out
as §3, with “determinations.” for “determinations. These assays generally produced results within 3-fold of the reported mean.”

SMILES	IC50 (TBK1)	IC50 (IKKε)
CCC[C@H]1C[C@@H]1C(=O)Nc1cc(-c2ccc(OC3CCOCC3)c(C#N)c2)ccn1 (relative stereo) [Example 91, (1,2-trans)-N-(4-(3-cyano-4-((tetrahydro-2H-pyran-4-yl)oxy)phenyl)pyridin-2-yl)-2-propylcyclopropane-1-carboxamide]	44.1 nM	266 nM
N#Cc1cc(-c2ccnc(NC(=O)[C@H]3C[C@@H]3c3ccc(OC(F)(F)F)cc3)c2)ccc1OC1CCOCC1 (relative stereo) [Example 99, (1,2-trans)-N-(4-(3-cyano-4-((tetrahydro-2H-pyran-4-yl)oxy)phenyl)pyridin-2-yl)-2-(4-(trifluoromethoxy)phenyl)cyclopropane-1-carboxamide]	> 1000 nM	> 1000 nM
N#Cc1cc(-c2ccnc(NC(=O)[C@H]3C[C@@H]3c3cccnc3)c2)ccc1OC1CCOCC1 (relative stereo) [Example 100, (1,2-trans)-N-(4-(3-cyano-4-((tetrahydro-2H-pyran-4-yl)oxy)phenyl)pyridin-2-yl)-2-(pyridin-3-yl)cyclopropane-1-carboxamide]	20.3 nM	130 nM
N#Cc1cc(-c2ccnc(NC(=O)[C@H]3C[C@@H]3C(F)F)c2)ccc1OC1CCOCC1 (relative stereo) [Example 101, (1,2-trans)-N-(4-(3-cyano-4-((tetrahydro-2H-pyran-4-yl)oxy)phenyl)pyridin-2-yl)-2-(difluoromethyl)cyclopropane-1-carboxamide]	96.8 nM	> 1000 nM
N#Cc1cc(-c2ccnc(NC(=O)[C@@H]3C[C@H]3c3ccno3)c2)ccc1OC1CCOCC1 (relative stereo) [Example 102, trans-1,2-N-(4-(3-cyano-4-((tetrahydro-2H-pyran-4-yl)oxy)phenyl)pyridin-2-yl)-2-(isoxazol-5-yl)cyclopropane-1-carboxamide]	33.4 nM	196 nM
N#Cc1cc(-c2ccnc(NC(=O)[C@@H]3C[C@H]3C#N)c2)ccc1OC1CCOCC1 (relative stereo) [Example 116, (1,2-Trans)-2-cyano-N-(4-(3-cyano-4-((tetrahydro-2H-pyran-4-yl)oxy)phenyl)pyridin-2-yl)cyclopropane-1-carboxamide]	181 nM	471 nM
N#Cc1cc(-c2ccnc(NC(=O)[C@H]3C[C@@H]3c3cccc(F)c3)c2)ccc1OC1CCOCC1 (relative stereo) [Example 119, (1,2-Trans)-N-(4-(3-cyano-4-((tetrahydro-2H-pyran-4-yl)oxy)phenyl)pyridin-2-yl)-2-(3-fluorophenyl)cyclopropane-1-carboxamide]	99.3 nM	> 1000 nM
Cn1cc([C@@H]2C[C@H]2C(=O)Nc2cc(-c3ccc(OC4CCOCC4)c(C#N)c3)ccn2)cn1 (relative stereo) [Example 120, (1,2-Trans)-N-(4-(3-cyano-4-((tetrahydro-2H-pyran-4-yl)oxy)phenyl)pyridin-2-yl)-2-(1-methyl-1H-pyrazol-4-yl)cyclopropane-1-carboxamide]	29.1 nM	181 nM
N#Cc1cc(-c2ccnc(NC(=O)[C@H]3C[C@@H]3c3cscn3)c2)ccc1OC1CCOCC1 (relative stereo) [Example 123, (1,2-Trans)-N-(4-(3-cyano-4-((tetrahydro-2H-pyran-4-yl)oxy)phenyl)pyridin-2-yl)-2-(thiazol-4-yl)cyclopropane-1-carboxamide]	938 nM	> 1000 nM
N#Cc1cc(-c2ccnc(NC(=O)[C@@H]3C[C@H]3c3cccnc3)c2)ccc1O[C@H]1CCN(C(=O)CO)C[C@H]1F (relative stereo) [Example 127]	12.2 nM	33.2 nM
N#Cc1cc(-c2ccnc(NC(=O)[C@@H]3C[C@H]3c3ccco3)c2)ccc1OC1CCOCC1 (relative stereo) [Example 150, Trans-N-(4-(3-cyano-4-((tetrahydro-2H-pyran-4-yl)oxy)phenyl)pyridin-2-yl)-2-(furan-2-yl)cyclopropane-1-carboxamide]	70.5 nM	636 nM
N#Cc1cc(-c2ccnc(NC(=O)[C@@H]3C[C@H]3c3ccncc3)c2)ccc1OC1CCOCC1 (relative stereo) [Example 151, Trans-N-(4-(3-cyano-4-((tetrahydro-2H-pyran-4-yl)oxy)phenyl)pyridin-2-yl)-2-(pyridin-4-yl)cyclopropane-1-carboxamide]	75.6 nM	200 nM
Cn1cc([C@@H]2C[C@H]2C(=O)Nc2cc(-c3ccc(O[C@H]4CCN(C(=O)CO)C[C@H]4F)c(C#N)c3)ccn2)cn1 (single isomer, unassigned) [Example 125]	18.9 nM	31.4 nM
N#Cc1cc(-c2ccnc(NC(=O)[C@@H]3C[C@@H]3c3ccccc3)c2)ccc1O[C@H]1CCN(C(=O)CO)C[C@H]1F (stereo in doubt) [Example 71, (1,2-cis)-N-(4-(3-Cyano-4-(((3R,4S)-3-fluoro-1-(2-hydroxyacetyl)piperidin-4-yl)oxy)phenyl)pyridin-2-yl)-2-phenylcyclopropane-1-carboxamide]	51.4 nM	117 nM
N#Cc1cc(-c2ccnc(NC(=O)[C@@H]3C[C@@H]3C(N)=O)c2)ccc1O[C@H]1CCN(C(=O)CO)C[C@H]1F (stereo in doubt) [Example 82, (1,2-cis)-N1-(4-(3-cyano-4-(((3R,4S)-3-fluoro-1-(2-hydroxyacetyl)piperidin-4-yl)oxy)phenyl)pyridin-2-yl)cyclopropane-1,2-dicarboxamide]	607 nM	857 nM
N#Cc1cc(-c2ccnc(NC(=O)[C@@H]3CC3C(=O)O)c2)ccc1O[C@H]1CCN(C(=O)CO)C[C@H]1F (stereo in doubt) [Example 84, (1,2-trans)-2-((4-(3-cyano-4-(((3R,4S)-3-fluoro-1-(2-hydroxyacetyl)piperidin-4-yl)oxy)phenyl)pyridin-2-yl)carbamoyl)cyclopropane-1-carboxylic acid]	333 nM	135 nM
Cn1cc(C2C[C@H]2C(=O)Nc2cc(-c3ccc(O[C@H]4CCN(C(=O)CO)CC4(F)F)c(C#N)c3)ccn2)cn1 (stereo in doubt) [Example 89, (1,2-trans)-N-(4-(3-cyano-4-(((S)-3,3-difluoro-1-(2-hydroxyacetyl)piperidin-4-yl)oxy)phenyl)pyridin-2-yl)-2-(1-methyl-1H-pyrazol-4-yl)cyclopropane-1-carboxamide]	4.5 nM	2.4 nM
N#Cc1cc(-c2ccnc(NC(=O)C3CCCCC3)c2)ccc1OC1CCOCC1 [Example 1, N-(4-(3-cyano-4-((tetrahydro-2H-pyran-4-yl)oxy)phenyl)pyridin-2-yl)cyclohexanecarboxamide]	755 nM	331 nM
